According to PubChem BioAssay AID330 (DTP/NCI, 2004):
Values joined by “and” are separate entries in the source; they are usually repeats but may differ in a detail not shown here. Equal entries are not always repeated. Inconclusive results and toxic doses are left out.

Test system: P388 leukemia ip, CD2F1 mice, survival T/C
Assay: NCI In Vivo Anticancer Drug Screen. Data for tumor model P388 Leukemia (intraperitoneal) in CD2F1 (CDF1) mice
Settings: endpoint: median survival time, higher = longer survival
Method in brief: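 Mice carrying the transplanted tumor received test compound or vehicle. Survival was recorded in each group, and the value is the treated-group measurement divided by that of the vehicle-treated control group.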

[1] = dose: 50.0 mg/kg/injection, schedule: Q01DX005 (ip), vehicle: Klucel (hydroxypropylcellulose) (HPC)
[2] = dose: 100.0 mg/kg/injection, schedule: Q01DX005 (ip), vehicle: Klucel (hydroxypropylcellulose) (HPC)
[3] = dose: 200.0 mg/kg/injection, schedule: Q01DX005 (ip), vehicle: Klucel (hydroxypropylcellulose) (HPC)
[4] = dose: 12.5 mg/kg/injection, schedule: Q01DX009 (ip), vehicle: saline
[5] = dose: 25.0 mg/kg/injection, schedule: Q01DX009 (ip), vehicle: saline
[6] = dose: 50.0 mg/kg/injection, schedule: Q01DX009 (ip), vehicle: saline with Tween-80
[7] = dose: 50.0 mg/kg/injection, schedule: Q01DX009 (ip), vehicle: saline
[8] = dose: 100.0 mg/kg/injection, schedule: Q04DX003 (ip), vehicle: saline
[9] = dose: 200.0 mg/kg/injection, schedule: Q04DX003 (ip), vehicle: saline
[10] = dose: 100.0 mg/kg/injection, schedule: Q01DX009 (ip), vehicle: saline

Compound: COc1c(C=O)c2c(c(OC)c1OC)-c1ccc(OC)c(=O)cc1[C@@H](NC(C)=O)CC2
- T/C (dose: 0.39 mg/kg/injection, schedule: Q01DX009 (ip), vehicle: Klucel (hydroxypropylcellulose) (HPC)): 151 % of control
- T/C (dose: 0.78 mg/kg/injection, schedule: Q01DX009 (ip), vehicle: Klucel (hydroxypropylcellulose) (HPC)): 154 % of control
- T/C (dose: 1.56 mg/kg/injection, schedule: Q01DX009 (ip), vehicle: Klucel (hydroxypropylcellulose) (HPC)): 160 % of control and 175 % of control
- T/C (dose: 3.12 mg/kg/injection, schedule: Q01DX009 (ip), vehicle: Klucel (hydroxypropylcellulose) (HPC)): 180 % of control and 194 % of control
- T/C (dose: 6.25 mg/kg/injection, schedule: Q01DX009 (ip), vehicle: Klucel (hydroxypropylcellulose) (HPC)): 205 % of control
- T/C (dose: 12.5 mg/kg/injection, schedule: Q01DX009 (ip), vehicle: Klucel (hydroxypropylcellulose) (HPC)): 102 % of control

Compound: COC(=O)C(C)NC(=O)C(C)NC(=O)C(C)NC(C)=O (stereo not drawn)
- T/C [1]: 102 % of control
- T/C [2]: 94 % of control
- T/C [3]: 100 % of control

Compound: Clc1ncnc2n[nH]c(Br)c12
- T/C (dose: 100.0 mg/kg/injection, schedule: Q04DX002 (ip), vehicle: water): 108 % of control
- T/C (dose: 200.0 mg/kg/injection, schedule: Q04DX002 (ip), vehicle: water): 116 % of control
- T/C (dose: 400.0 mg/kg/injection, schedule: Q04DX002 (ip), vehicle: water): 107 % of control

Compound: Cc1cc(CSC(=N)N)c(C)cc1CSC(=N)N
- T/C (dose: 5.0 mg/kg/injection, schedule: Q01DX009 (ip), vehicle: saline with Tween-80): 100 % of control
- T/C (dose: 10.0 mg/kg/injection, schedule: Q01DX009 (ip), vehicle: saline with Tween-80): 109 % of control
- T/C (dose: 10.0 mg/kg/injection, schedule: Q04DX003 (ip), vehicle: saline with Tween-80): 108 % of control
- T/C (dose: 20.0 mg/kg/injection, schedule: Q01DX009 (ip), vehicle: saline with Tween-80): 109 % of control
- T/C (dose: 20.0 mg/kg/injection, schedule: Q04DX003 (ip), vehicle: saline with Tween-80): 104 % of control
- T/C (dose: 40.0 mg/kg/injection, schedule: Q04DX003 (ip), vehicle: saline with Tween-80): 116 % of control

Compound: COc1ccc(CC2C(=O)NC(C)C(=O)N(C)C3C(=O)N(C)C(Cc4ccc(OC(C)=O)c(c4)Oc4ccc(cc4)C3OC(C)=O)C(=O)NC(C)C(=O)NC(C)C(=O)N2C)cc1 (stereo not drawn)
- T/C (dose: 2.0 mg/kg/injection, schedule: Q01DX009 (ip), vehicle: none): 154 % of control

Compound: COc1ccc2c(c1)/C(=C/CCN(C)C)c1ccccc1S2
- T/C (dose: 12.5 mg/kg/injection, schedule: Q04DX003 (ip), vehicle: saline): 113 % of control
- T/C (dose: 25.0 mg/kg/injection, schedule: Q04DX003 (ip), vehicle: saline): 109 % of control

Compound: OC(Nc1nccs1)C(F)(F)F (stereo not drawn)
- T/C [4]: 99 % of control
- T/C [5]: 100 % of control
- T/C [6]: 95 % of control
- T/C [7]: 101 % of control

Compound: COc1ccc(CCN2CC(=O)N3CSCC3C2=O)cc1OC (stereo not drawn)
- T/C (dose: 60.0 mg/kg/injection, schedule: Q01DX005 (ip), vehicle: saline with Tween-80): 100 % of control
- T/C (dose: 120.0 mg/kg/injection, schedule: Q01DX005 (ip), vehicle: saline with Tween-80): 95 % of control
- T/C (dose: 240.0 mg/kg/injection, schedule: Q01DX005 (ip), vehicle: saline with Tween-80): 95 % of control

Compound: CCOC(=O)/C=C/c1nc(C(=O)OCC)c(C)c(=O)[nH]1
- T/C (dose: 1.0 mg/kg/injection, schedule: Q01DX009 (ip), vehicle: other): 120 % of control
- T/C (dose: 2.0 mg/kg/injection, schedule: Q01DX009 (ip), vehicle: other): 99 % of control
- T/C (dose: 4.0 mg/kg/injection, schedule: Q01DX009 (ip), vehicle: other): 99 % of control
- T/C (dose: 8.0 mg/kg/injection, schedule: Q01DX009 (ip), vehicle: other): 107 % of control
- T/C (dose: 16.0 mg/kg/injection, schedule: Q01DX009 (ip), vehicle: other): 104 % of control and 95 % of control
- T/C (dose: 32.0 mg/kg/injection, schedule: Q01DX009 (ip), vehicle: other): 95 % of control
- T/C (dose: 64.0 mg/kg/injection, schedule: Q01DX009 (ip), vehicle: other): 92 % of control
- T/C (dose: 128.0 mg/kg/injection, schedule: Q01DX009 (ip), vehicle: other): 95 % of control
- T/C (dose: 200.0 mg/kg/injection, schedule: Q01DX009 (ip), vehicle: distilled water + Tween-80): 99 % of control
- T/C (dose: 256.0 mg/kg/injection, schedule: Q01DX009 (ip), vehicle: other): 113 % of control
- T/C (dose: 400.0 mg/kg/injection, schedule: Q01DX009 (ip), vehicle: distilled water + Tween-80): 100 % of control

Compound: C=C1C(=O)OC2CC3(C)OC3CCC3(C)OC3CC12 (stereo not drawn)
- T/C (dose: 7.75 mg/kg/injection, schedule: Q01DX005 (ip), vehicle: Klucel (hydroxypropylcellulose) (HPC)): 105 % of control
- T/C (dose: 15.5 mg/kg/injection, schedule: Q01DX005 (ip), vehicle: Klucel (hydroxypropylcellulose) (HPC)): 101 % of control
- T/C (dose: 31.0 mg/kg/injection, schedule: Q01DX005 (ip), vehicle: Klucel (hydroxypropylcellulose) (HPC)): 109 % of control
- T/C (dose: 62.0 mg/kg/injection, schedule: Q01DX005 (ip), vehicle: Klucel (hydroxypropylcellulose) (HPC)): 105 % of control

Compound: CCCCC(=O)Nc1ccc(S(=O)(=O)O)c(N=NC2C(=O)N(c3ccccc3)N=C2C)c1 (stereo not drawn)
- T/C [8]: 110 % of control
- T/C [9]: 100 % of control
- T/C (dose: 400.0 mg/kg/injection, schedule: Q04DX003 (ip), vehicle: saline): 100 % of control

Compound: COc1ccc2c(c1)OC1CC2NC(N)=N1 (stereo not drawn)
- T/C (dose: 6.25 mg/kg/injection, schedule: Q01DX009 (ip), vehicle: saline): 100 % of control
- T/C [4]: 107 % of control
- T/C [5]: 109 % of control

Compound: O=C(Nc1ccc(C2=NCCN2)cc1)c1cc2cc(C3=NCCN3)ccc2o1
- T/C (dose: 12.5 mg/kg/injection, schedule: Q04DX003 (ip), vehicle: suspension in saline): 100 % of control
- T/C (dose: 25.0 mg/kg/injection, schedule: Q04DX003 (ip), vehicle: suspension in saline): 102 % of control
- T/C (dose: 50.0 mg/kg/injection, schedule: Q04DX003 (ip), vehicle: suspension in saline): 100 % of control

Compound: O=C1OCc2nc3ccccc3cc21
- T/C (dose: 50.0 mg/kg/injection, schedule: Q04DX003 (ip), vehicle: Klucel (hydroxypropylcellulose) (HPC)): 100 % of control
- T/C (dose: 100.0 mg/kg/injection, schedule: Q04DX003 (ip), vehicle: Klucel (hydroxypropylcellulose) (HPC)): 98 % of control
- T/C (dose: 200.0 mg/kg/injection, schedule: Q04DX003 (ip), vehicle: Klucel (hydroxypropylcellulose) (HPC)): 106 % of control

Compound: CN1C(=O)Cc2ccccc2C1=O
- T/C [4]: 103 % of control
- T/C [5]: 101 % of control
- T/C [7]: 119 % of control
- T/C [10]: 103 % of control

Compound: CCOC(=O)C(C#N)(CCC(=NC(C)(C)C)Nc1ccccc1C#N)CCC(=NC(C)(C)C)Nc1ccccc1C#N (stereo not drawn)
- T/C [6]: 100 % of control
- T/C (dose: 100.0 mg/kg/injection, schedule: Q01DX009 (ip), vehicle: saline with Tween-80): 94 % of control

Compound: C=C(C(=O)O)C(=O)O
- T/C [7]: 105 % of control
- T/C (dose: 50.0 mg/kg/injection, schedule: Q04DX003 (ip), vehicle: saline): 115 % of control
- T/C [10]: 110 % of control
- T/C [8]: 105 % of control
- T/C [9]: 115 % of control

Compound: COc1cccc2c1C(=O)c1c(O)c3c(c(O)c1C2=O)C[C@@](O)(/C(C)=N/NS(C)(=O)=O)C[C@@H]3OC1CC(N)C(O)C(C)O1 (stereo partly drawn)
- T/C (dose: 3.13 mg/kg/injection, schedule: Q01DX009 (ip), vehicle: water): 157 % of control
- T/C (dose: 6.25 mg/kg/injection, schedule: Q01DX009 (ip), vehicle: water): 164 % of control and 166 % of control
- T/C (dose: 12.5 mg/kg/injection, schedule: Q01DX009 (ip), vehicle: water): 183 % of control and 187 % of control
- T/C [5]: 166 % of control
- T/C (dose: 25.0 mg/kg/injection, schedule: Q01DX009 (ip), vehicle: water): 117 % of control and 201 % of control
- T/C [7]: 193 % of control
- T/C (dose: 50.0 mg/kg/injection, schedule: Q01DX009 (ip), vehicle: water): 99 % of control
- T/C [10]: 283 % of control
- T/C (dose: 200.0 mg/kg/injection, schedule: Q01DX009 (ip), vehicle: saline): 108 % of control

Compound: NC(=O)NC(c1ccc(O)cc1)c1cc2c(cc1O)OCO2 (stereo not drawn)
- T/C (dose: 60.0 mg/kg/injection, schedule: Q01DX005 (ip), vehicle: Klucel + Tween-80): 86 % of control
- T/C (dose: 120.0 mg/kg/injection, schedule: Q01DX005 (ip), vehicle: Klucel + Tween-80): 86 % of control
- T/C (dose: 240.0 mg/kg/injection, schedule: Q01DX005 (ip), vehicle: Klucel + Tween-80): 86 % of control

Compound: CC1(C)Cc2[nH]c3ccccc3c(=O)c2-c2nc3ccccc3c(=O)n21
- T/C (dose: 12.5 mg/kg/injection, schedule: Q01DX005 (ip), vehicle: Klucel (hydroxypropylcellulose) (HPC)): 98 % of control
- T/C (dose: 25.0 mg/kg/injection, schedule: Q01DX005 (ip), vehicle: Klucel (hydroxypropylcellulose) (HPC)): 88 % of control
- T/C [1]: 90 % of control
- T/C [2]: 98 % of control
- T/C [3]: 116 % of control
